From PubChem BioAssay (NCI)
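Where inhibition never reached the appropriate level, the endpoint shown equals the highest concentration tested. Otherwise, values were interpolated linearly from a five-concentration, 48-hour dose response in 96-well plates. Definition used: TGI = concentration required for complete inhibition of growth.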

How the values were obtained:
Test in all cases: DTP human tumour cell line panel, 48 h
SK-MEL-2 melanoma = tested on: SK-MEL-2 melanoma
K-562 leukemia = tested on: K-562 leukemia
RPMI-8226 leukemia = tested on: RPMI-8226 leukemia
MDA-MB-435 = tested on: MDA-MB-435
NCI-H23 lung = tested on: NCI-H23 lung
A549 NSCLC = tested on: A549 NSCLC
EKVX NSCLC = tested on: EKVX NSCLC
HS 578T breast = tested on: HS 578T breast
786-0 renal = tested on: 786-0 renal
OVCAR-8 ovarian = tested on: OVCAR-8 ovarian
MDA-N = tested on: MDA-N
SR leukemia = tested on: SR leukemia
CCRF-CEM leukemia = tested on: CCRF-CEM leukemia
SK-OV-3 ovarian = tested on: SK-OV-3 ovarian
COLO 205 colon = tested on: COLO 205 colon
MOLT-4 leukemia = tested on: MOLT-4 leukemia
SN12C renal = tested on: SN12C renal
CAKI-1 renal = tested on: CAKI-1 renal
SF-268 CNS = tested on: SF-268 CNS
IGROV1 ovarian = tested on: IGROV1 ovarian

Measured: TGI

Cc1cn(CCCCOC(=O)NC(CCCNC(N)=O)C(=O)O)c(=O)[nH]c1=O (stereo not given)
> 100 µM: all assays above

Cc1nc2ccc(S(=O)(=O)Nc3ccccc3Cl)cc2c(=O)n1NC(=O)CNc1ccccc1Cl
> 100 µM: all assays above

COc1ccc(/C(Cl)=C(\CNc2ccccn2)c2ccccc2)cc1OC
> 100 µM: all assays above

Cc1cn(C2CC(N=[N+]=[N-])C(C(=O)O)O2)c(=O)[nH]c1=O (stereo not given)
> 100 µM: all assays above
